Test [1] relates to PRMT1. As to conditions: ref [15]–[17]; cited from earlier work.
In test [2] the target is T1, PRMT1 (Homo sapiens, UniProt Q99873). Description: Active PRMT1 in MCF-7 nuclear extracts after estrogen stimulation. It is filed as cell-based. As to conditions: 10 nM E2, 5 minute time point.
The target of test [3] is T1, PRMT1. The test is described as follows: Active PRMT1 in MCF-7 cytoplasmic extracts after estrogen stimulation. It is filed as cell-based.

T1 sequence (Q99873 whole entry): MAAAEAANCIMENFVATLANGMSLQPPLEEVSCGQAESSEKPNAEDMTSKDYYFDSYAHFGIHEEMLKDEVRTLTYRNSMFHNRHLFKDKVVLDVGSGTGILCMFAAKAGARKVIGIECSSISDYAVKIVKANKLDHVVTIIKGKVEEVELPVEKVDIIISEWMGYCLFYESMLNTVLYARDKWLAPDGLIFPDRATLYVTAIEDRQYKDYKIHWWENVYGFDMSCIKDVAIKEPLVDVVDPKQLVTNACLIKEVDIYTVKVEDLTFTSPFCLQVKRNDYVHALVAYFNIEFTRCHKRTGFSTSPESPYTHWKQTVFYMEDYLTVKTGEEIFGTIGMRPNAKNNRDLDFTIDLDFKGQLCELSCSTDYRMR

As for “AcH4-21: peptide which consists of the first 21 amino acids of histone H4, highly efficient PRMT1 substrate”, the PRMT1 substrate quality entry in the test with PRMT1 [1] was “highly efficient PRMT1 substrate”.

Take estrogen: the “maximum reduction of active PRMT1 in nucleus” value on PRMT1 [2] was determined as 3 fold. In addition, the “increase of active PRMT1 in cytoplasm” value on PRMT1 [3] (10 nM E2, 5 minutes after addition, MCF-7) is 2.5 fold. Also, on PRMT1 [3] (10 nM E2, MCF-7), the “time of maximum active PRMT1 in cytoplasm” value turned out to be 10 min and the “time of return of active cytoplasmic PRMT1 to basal levels” value is given as ~ 15 minutes. The “total PRMT1 levels in cytosolic and nuclear extracts (loading control) after estrogen” value at PRMT1 [3] (10 nM E2, MCF-7, 10% loading control, Figure 6A lower panel) was “remain constant”.

The values above are taken from publication PMC3199286 (ACS chemical biology, 2011).
